This test addresses T1, IRAK4 (Homo sapiens, UniProt Q9NWZ3).
T1 construct: Degradation of IRAK4 in OCI-LY10 was quantitatively measured using Meso Scale Discovery technology; endogenous in cells; host or cells: OCI-LY10
T1 sequence (Q9NWZ3 1-460): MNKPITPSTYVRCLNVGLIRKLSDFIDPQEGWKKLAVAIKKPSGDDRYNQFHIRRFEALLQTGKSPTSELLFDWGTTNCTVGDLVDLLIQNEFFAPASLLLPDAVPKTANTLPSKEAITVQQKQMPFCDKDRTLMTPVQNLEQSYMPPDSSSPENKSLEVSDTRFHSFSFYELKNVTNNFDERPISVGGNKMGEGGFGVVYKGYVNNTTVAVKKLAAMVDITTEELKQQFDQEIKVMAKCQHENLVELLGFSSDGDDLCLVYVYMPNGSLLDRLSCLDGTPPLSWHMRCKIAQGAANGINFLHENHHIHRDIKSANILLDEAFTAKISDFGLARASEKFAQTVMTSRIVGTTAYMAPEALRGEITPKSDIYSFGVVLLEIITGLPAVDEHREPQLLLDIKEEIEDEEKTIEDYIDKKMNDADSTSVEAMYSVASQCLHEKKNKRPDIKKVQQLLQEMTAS
Put plainly: IRAK4 MSD Degradation in OCI-LY10. The note with it: OCI-LY10 cells, MSD. Type of test: cell-based. Summed up: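 OCI-LY10 cells exposed to 8-point 1:3 compound series (top 1 to 10 μM) for 4 to 24 h at 37 °C, 5% CO2. Lysate IRAK4 quantified by MSD sandwich immunoassay. DC50 from three-parameter logistic fit, binned A (<0.01 μM) to D (>0.2 μM or not tested).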

The mark [1] stands for this setting: 4 hrs incubation, read-out: IRAK4 degradation in OCI-LY10 at 4 hrs: DC50.
Where [2] appears, read: 24 hrs incubation, read-out: IRAK4 degradation in OCI-LY10 at 24 hrs: DC50.

Data on 33 compounds can be found in patent US12091411B2, “IRAK degraders and uses thereof” (Kymera Therapeutics, Inc., priority 2022, dated 2024).

Read-outs that look alike come from different tables or passages of the source. Bounds are passed on as bounds.

By DC50 is commonly meant the concentration at which degradation of the target reaches its halfway point.

In the case of `Cn1c(=O)n(C2CCC(=O)NC2=O)c2cccc(C#CCN3CCN(C[C@H]4CC[C@H](n5cc(NC(=O)c6cnn7ccc(N8CC9(COC9)C8)nc67)c(C(F)F)n5)CC4)CC3)c21` (stereo partly drawn) [I-315], the DC50 reads like this: under setting [1], above 200 nM; under setting [2], below 10 nM.
The corresponding values for `Cn1c(=O)n(C2CCC(=O)NC2=O)c2cccc(C#CCN3CCN(C[C@H]4CC[C@H](n5cc(NC(=O)c6cnn7ccc(N8CC9(CCOCC9)C8)nc67)c(C(F)F)n5)CC4)CC3)c21` (stereo partly drawn) [I-316] are above 200 nM and 10 to 100 nM.
The corresponding values for `Cn1c(=O)n(C2CCC(=O)NC2=O)c2cccc(C#CCN3CCN(C[C@H]4CC[C@H](n5cc(NC(=O)c6cnn7ccc(N8CC9(CCOC9)C8)nc67)c(C(F)F)n5)CC4)CC3)c21` (stereo partly drawn) [I-317] are above 200 nM and above 200 nM.
For `Cn1c(=O)n(C2CCC(=O)NC2=O)c2cccc(C#CCN3CCN(C[C@H]4CC[C@H](n5cc(NC(=O)c6cnn7ccc(N8CC9(CCCOC9)C8)nc67)c(C(F)F)n5)CC4)CC3)c21` (stereo partly drawn) [I-318] the same measures were 10 to 100 nM and above 200 nM.
`Cn1c(=O)n(C2CCC(=O)NC2=O)c2cccc(C#CCN3CCN(C[C@H]4CC[C@H](n5cc(NC(=O)c6cnn7ccc(N8CCC9(CCOCC9)C8)nc67)c(C(F)F)n5)CC4)CC3)c21` (stereo partly drawn) [I-319]: the DC50 was above 200 nM under setting [1] and below 10 nM under setting [2].
Turning to `Cn1c(=O)n(C2CCC(=O)NC2=O)c2cccc(C#CCN3CCN(C[C@H]4CC[C@H](n5cc(NC(=O)c6cnn7ccc(N8CCC9(COC9)C8)nc67)c(C(F)F)n5)CC4)CC3)c21` (stereo partly drawn) [I-320], the DC50 was below 10 nM under setting [1] and above 200 nM under setting [2].
`Cn1c(=O)n(C2CCC(=O)NC2=O)c2cccc(C#CCN3CCN(C[C@H]4CC[C@H](n5cc(NC(=O)c6cnn7ccc(N8CCC9(CCOC9)C8)nc67)c(C(F)F)n5)CC4)CC3)c21` (stereo partly drawn) [I-321]: the DC50 runs as follows: under setting [1], above 200 nM; under setting [2], below 10 nM.
The corresponding values for `Cn1c(=O)n(C2CCC(=O)NC2=O)c2cccc(C#CCN3CCN(C[C@H]4CC[C@H](n5cc(NC(=O)c6cnn7ccc(N8CCOC(C(F)(F)F)C8)nc67)c(C(F)F)n5)CC4)CC3)c21` (stereo partly drawn) [I-322] are above 200 nM and above 200 nM.
For `Cn1c(=O)n(C2CCC(=O)NC2=O)c2cccc(C#CCN3CCN(C[C@H]4CC[C@H](n5cc(NC(=O)c6cnn7ccc(N8CC9COCC9C8)nc67)c(C(F)F)n5)CC4)CC3)c21` (stereo partly drawn) [I-323] the same measures were above 200 nM and above 200 nM.
The corresponding values for `Cn1c(=O)n(C2CCC(=O)NC2=O)c2cccc(C#CCN3CCN(C[C@H]4CC[C@H](n5cc(NC(=O)c6cnn7ccc(N8CCOC(F)(F)C8)nc67)c(C(F)F)n5)CC4)CC3)c21` (stereo partly drawn) [I-324] are above 200 nM and above 200 nM.
Turning to `Cn1c(=O)n(C2CCC(=O)NC2=O)c2cccc(C#CCOC3CCN(C[C@H]4CC[C@H](n5cc(NC(=O)c6cnn7ccc(N8CC9(COC9)C8)nc67)c(C(F)F)n5)CC4)CC3)c21` (stereo partly drawn) [I-325], the half-maximal degradation concentration (DC50) under setting [1] is above 200 nM and the DC50 under setting [2] is above 200 nM.
With `Cn1c(=O)n(C2CCC(=O)NC2=O)c2cccc(C#CCOC3CCN(C[C@H]4CC[C@H](n5cc(NC(=O)c6cnn7ccc(N8CC9(CCOCC9)C8)nc67)c(C(F)F)n5)CC4)CC3)c21` (stereo partly drawn) [I-326], the 50% degradation concentration (DC50) was 10 to 100 nM under setting [1] and above 200 nM under setting [2].
For `Cn1c(=O)n(C2CCC(=O)NC2=O)c2cccc(C#CCOC3CCN(C[C@H]4CC[C@H](n5cc(NC(=O)c6cnn7ccc(N8CC9(CCOC9)C8)nc67)c(C(F)F)n5)CC4)CC3)c21` (stereo partly drawn) [I-327] the same measures were above 200 nM and below 10 nM.
As to `Cn1c(=O)n(C2CCC(=O)NC2=O)c2cccc(C#CCOC3CCN(C[C@H]4CC[C@H](n5cc(NC(=O)c6cnn7ccc(N8CC9(CCCOC9)C8)nc67)c(C(F)F)n5)CC4)CC3)c21` (stereo partly drawn) [I-328], the 50% degradation concentration (DC50) is 10 to 100 nM under setting [1] and above 200 nM under setting [2].
The corresponding values for `Cn1c(=O)n(C2CCC(=O)NC2=O)c2cccc(C#CCOC3CCN(C[C@H]4CC[C@H](n5cc(NC(=O)c6cnn7ccc(N8CCC9(CCOCC9)C8)nc67)c(C(F)F)n5)CC4)CC3)c21` (stereo partly drawn) [I-329] are 10 to 100 nM and above 200 nM.
For `Cn1c(=O)n(C2CCC(=O)NC2=O)c2cccc(C#CCOC3CCN(C[C@H]4CC[C@H](n5cc(NC(=O)c6cnn7ccc(N8CCC9(COC9)C8)nc67)c(C(F)F)n5)CC4)CC3)c21` (stereo partly drawn) [I-330] the same measures were above 200 nM and above 200 nM.
The corresponding values for `Cn1c(=O)n(C2CCC(=O)NC2=O)c2cccc(C#CCOC3CCN(C[C@H]4CC[C@H](n5cc(NC(=O)c6cnn7ccc(N8CCC9(CCOC9)C8)nc67)c(C(F)F)n5)CC4)CC3)c21` (stereo partly drawn) [I-331] are 10 to 100 nM and above 200 nM.
With `Cn1c(=O)n(C2CCC(=O)NC2=O)c2cccc(C#CCOC3CCN(C[C@H]4CC[C@H](n5cc(NC(=O)c6cnn7ccc(N8CC9COCC9C8)nc67)c(C(F)F)n5)CC4)CC3)c21` (stereo partly drawn) [I-332], the DC50 by setting is: under setting [1], below 10 nM; under setting [2], above 200 nM.
With `Cn1c(=O)n(C2CCC(=O)NC2=O)c2cccc(C#CCOC3CCN(C[C@H]4CC[C@H](n5cc(NC(=O)c6cnn7ccc(N8CCOC(C(F)(F)F)C8)nc67)c(C(F)F)n5)CC4)CC3)c21` (stereo partly drawn) [I-333], the DC50 is above 200 nM under setting [1] and above 200 nM under setting [2].
On to `Cn1c(=O)n(C2CCC(=O)NC2=O)c2cccc(C#CCOC3CCN(C[C@H]4CC[C@H](n5cc(NC(=O)c6cnn7ccc(N8CCOC(F)(F)C8)nc67)c(C(F)F)n5)CC4)CC3)c21` (stereo partly drawn) [I-334], for which the DC50 reads like this: under setting [1], above 200 nM; under setting [2], above 200 nM.
As for `Cn1c(=O)n(C2CCC(=O)NC2=O)c2cccc(C#CCN3CCN(C[C@H]4CC[C@H](n5cc(NC(=O)c6cccc7ccc(N8CCC8)nc67)c(C(F)F)n5)CC4)CC3)c21` (stereo partly drawn) [I-335], the half-maximal degradation concentration (DC50) is, setting by setting: under setting [1], above 200 nM; under setting [2], above 200 nM.
With `Cn1c(=O)n(C2CCC(=O)NC2=O)c2cccc(C#CCOC3CCN(C[C@H]4CC[C@H](n5cc(NC(=O)c6cccc7ccc(N8CCC8)nc67)c(C(F)F)n5)CC4)CC3)c21` (stereo partly drawn) [I-336], the DC50 reads like this: under setting [1], above 200 nM; under setting [2], above 200 nM.
In the case of `Cn1c(=O)n(C2CCC(=O)NC2=O)c2cccc(C#CCN3CCN(C[C@H]4CC[C@H](n5cc(NC(=O)c6cnn7ccc(N8CC9CC(C8)O9)nc67)c(C(F)F)n5)CC4)CC3)c21` (stereo partly drawn) [I-337], the 50% degradation concentration (DC50) is above 200 nM under setting [1] and below 10 nM under setting [2].
As for `Cn1c(=O)n(C2CCC(=O)NC2=O)c2cccc(C#CCN3CCN(C[C@H]4CC[C@H](n5cc(NC(=O)c6cnn7ccc(N8C9COCC8C9)nc67)c(C(F)F)n5)CC4)CC3)c21` (stereo partly drawn) [I-338], the DC50 is above 200 nM under setting [1] and below 10 nM under setting [2].
In the case of `Cn1c(=O)n(C2CCC(=O)NC2=O)c2cccc(C#CCN3CCN(C[C@H]4CC[C@H](n5cc(NC(=O)c6cnn7ccc(N8C9CCC8COC9)nc67)c(C(F)F)n5)CC4)CC3)c21` (stereo partly drawn) [I-339], the half-maximal degradation concentration (DC50) reads like this: under setting [1], below 10 nM; under setting [2], above 200 nM.
The corresponding values for `Cn1c(=O)n(C2CCC(=O)NC2=O)c2cccc(C#CCN3CCN([C@H]4CC[C@H](n5cc(NC(=O)c6cnn7ccc(N8C[C@H]9C[C@@H]8CO9)nc67)c(C(F)F)n5)CC4)CC3)c21` (stereo partly drawn) [I-340] are above 200 nM and above 200 nM.
The corresponding values for `Cn1c(=O)n(C2CCC(=O)NC2=O)c2cccc(C#COCC3CCN([C@H]4CC[C@H](n5cc(NC(=O)c6cnn7ccc(N8C[C@H]9C[C@@H]8CO9)nc67)c(C(F)F)n5)CC4)CC3)c21` (stereo partly drawn) [I-341] are above 200 nM and above 200 nM.
For `Cn1c(=O)n(C2CCC(=O)NC2=O)c2cccc(C#CCN3CC4CCC(C3)N4C[C@H]3CC[C@H](n4cc(NC(=O)c5cnn6ccc(N7C[C@H]8C[C@@H]7CO8)nc56)c(C(F)F)n4)CC3)c21` (stereo partly drawn) [I-342] the same measures were below 10 nM and above 200 nM.
Consider `Cn1c(=O)n(C2CCC(=O)NC2=O)c2cccc(C#CCN3C4CCC3CN(C[C@H]3CC[C@H](n5cc(NC(=O)c6cnn7ccc(N8C[C@H]9C[C@@H]8CO9)nc67)c(C(F)F)n5)CC3)C4)c21` (stereo partly drawn) [I-343], for which the DC50 is, setting by setting: under setting [1], above 200 nM; under setting [2], below 10 nM.
The corresponding values for `Cn1c(=O)n(C2CCC(=O)NC2=O)c2cccc(C#CCN3CC4CC(C3)N4C[C@H]3CC[C@H](n4cc(NC(=O)c5cnn6ccc(N7C[C@H]8C[C@@H]7CO8)nc56)c(C(F)F)n4)CC3)c21` (stereo partly drawn) [I-344] are above 200 nM and above 200 nM.
Consider `Cn1c(=O)n(C2CCC(=O)NC2=O)c2cccc(C#CCN3C4CC3CN(C[C@H]3CC[C@H](n5cc(NC(=O)c6cnn7ccc(N8C[C@H]9C[C@@H]8CO9)nc67)c(C(F)F)n5)CC3)C4)c21` (stereo partly drawn) [I-345], for which the 50% degradation concentration (DC50) under setting [1] is 10 to 100 nM and the DC50 under setting [2] is above 200 nM.
The corresponding values for `Cn1c(=O)n(C2CCC(=O)NC2=O)c2cccc(C#CCN3CC4COCC(C3)N4C[C@H]3CC[C@H](n4cc(NC(=O)c5cnn6ccc(N7C[C@H]8C[C@@H]7CO8)nc56)c(C(F)F)n4)CC3)c21` (stereo partly drawn) [I-348] are 100 to 200 nM and above 200 nM.
In the case of `Cn1c(=O)n(C2CCC(=O)NC2=O)c2cccc(C#CCN3C4COCC3CN(C[C@H]3CC[C@H](n5cc(NC(=O)c6cnn7ccc(N8C[C@H]9C[C@@H]8CO9)nc67)c(C(F)F)n5)CC3)C4)c21` (stereo partly drawn) [I-349], the DC50 under setting [1] lay within 10 to 100 nM and the DC50 under setting [2] is above 200 nM.
